Assay results from PMC4132742, “Inhibition of RNA binding to hepatitis C virus RNA-dependent RNA polymerase: a new mechanism for antiviral intervention” (Nucleic Acids Research, 2014).
Where two headings read alike, the source gives them in different places.

How the values were obtained:
RNA duplex = RNA duplex fluorescence assay; settings: 20 μM compound
HCV-NS5BΔ21 RdRp mutants [1] = molecular target: T1, HCV-NS5BΔ21 RdRp mutants (Hepatitis C virus genotype 1b, UniProt O92972, V2535I); type: biochemical; settings: enzyme assay and genotype 1b subgenomic replicon, data not shown
T1 construct: His6 (N); made in house; host or cells: Escherichia coli C41(DE3)
Excerpt: (§1) The cell-free HCV-NS5BΔ21 polymerase assay is based on the real-time measurement of the amount of double-stranded RNA synthesized in the presence of HCV-NS5BΔ21, a homopolymeric RNA template (poly U or poly C, GE Healthcare, Chalfont St. Giles, UK) and the corresponding nucleotide, by means of an intercalating agent (SYBR® Green, Applied Biosystems, Carlsbad, CA, USA), as previously described ([20]). For screening, HCV-NS5BΔ21 polymerase activity was quantified by the slope of fluorescence increase in the presence of 20 μM of the tested flavonoid compounds and compared with the control reaction containing no inhibitor. […] The reported values are the average of three independent measurements performed in duplicate. For kinetics analysis, initial reaction velocities were measured at different nucleotide (adenosine triphosphate (ATP) or GTP) and studied compound concentrations, without pre-incubation and in the presence of 50 μg/ml of the corresponding homopolymeric RNA template (Poly U and Poly C, respectively). The concentration of NS5BΔ21 (J4 strain, genotype 1b) in the reaction was 0.1 mg/ml. Kinetics data were graphically represented as double reciprocal plots. Data points were fitted by linear regression to identify the inhibition mode of the compound.

HCV-NS5BΔ21 RdRp mutants [2] = type: biochemical, hepatitis C virus; settings: S96A and G557A mutants
Excerpt: as §1

HCV-NS5BΔ21 RdRp mutants [3] = molecular target: T2, HCV-NS5BΔ21 RdRp mutants (Hepatitis C virus genotype 1b, UniProt O92972, F2581Y); type: biochemical; settings: F162Y variant (33% of wild-type activity at baseline)
T2 construct: His6 (N); made in house; host or cells: Escherichia coli C41(DE3)
Excerpt: as §1

[4] = molecular target: T3, HCV-NS5BΔ21 RdRp genotype 1b (strain J4) (Hepatitis C virus genotype 1b, UniProt O92972); assay: biochemical; settings: range over three genotypes; read-out: IC50 in the enzyme assay, genotypes 1b, 1a and 2a
Procedure: (§2) The HCV RdRps (NS5B protein) from reference strains H77 (genotype 1a), J4 (genotype 1b) and JFH1 (genotype 2a), truncated of their 21 C-terminal amino acids to ensure solubility (NS5BΔ21) and carrying a hexahistidine tag (His6-Tag) at their N-terminus, were expressed in Escherichia coli C41(DE3) and purified as previously described ([20]). Briefly, cultures were grown at 37°C for ∼1 h and induced with 1 mM isopropyl β-D-thiogalactoside for 4 h at 37°C. […] After sonication, cell lysates were clarified by centrifugation, and chromatography was performed on a Ni-NTA column (Qiagen, Hilden, Germany). The bound protein was eluted in 1 ml fractions with a buffer containing 50 mM NaH2PO4 (pH 8.0), 500 mM NaCl and 250 mM imidazole. NS5BΔ21-enriched fractions were selected using a Bradford colorimetric assay, and HCV-NS5BΔ21 purity was determined by Coomassie-stained sodium dodecyl sulfate-polyacrylamide electrophoresis gel (SDS-PAGE) analysis. Purified NS5BΔ21 fractions were pooled and dialyzed against a buffer containing 5 mM Tris (pH 7.5), 0.2 M sodium acetate, 1 mM DTT, 1 mM ethylenediaminetetraacetic acid (EDTA) and 10% glycerol. […]

[5] = system: genotype 2a infectious J6/JFH1 strain; assay: J6/JFH1 infection in cell culture (HCVcc, Huh7.5 cells); type: cell-based; settings: Hepatitis C virus, Huh7.5, 72 h, read-out: EC50 J6/JFH1 replication
Procedure: The plasmid pFL-R-luc2A-ubi-J6/JFH1, containing the full-length cDNA of the chimeric J6/JFH1 HCV genotype 2a clone and the Renilla luciferase gene, was used to generate infectious HCV particles (HCVcc) in Huh7.5 cell culture. Huh7.5 cells were seeded in 48-well plates at a density of 10 000 cells/well, infected 24 h later with 100 μl of HCVcc and incubated overnight at 37°C. After incubation, the supernatants were removed and J6/JFH1-infected cells were washed with fresh medium. Increasing concentrations of the tested compounds were added in a medium containing 1% DMSO, and the cells were incubated 72 h at 37°C. Then, the cells were washed once with Dulbecco's PBS (Invitrogen), and 75 μl Renilla lysis buffer (Promega) was added to each well. Note that 20 μl of lysate was mixed with the luciferase assay substrate, as specified by the manufacturer. Luciferase activity was measured for 10 s in a Berthold luminometer.

[6] = molecular target: T3, HCV-NS5BΔ21 RdRp genotype 1b (strain J4); assay: biochemical; design: His6 (N); made in house; host or cells: Escherichia coli C41(DE3)
Procedure: The HCV RdRps (NS5B protein) from reference strains H77 (genotype 1a), J4 (genotype 1b) and JFH1 (genotype 2a), truncated of their 21 C-terminal amino acids to ensure solubility (NS5BΔ21) and carrying a hexahistidine tag (His6-Tag) at their N-terminus, were expressed in Escherichia coli C41(DE3) and purified as previously described ([20]). Briefly, cultures were grown at 37°C for ∼1 h and induced with 1 mM isopropyl β-D-thiogalactoside for 4 h at 37°C. […] After sonication, cell lysates were clarified by centrifugation, and chromatography was performed on a Ni-NTA column (Qiagen, Hilden, Germany). The bound protein was eluted in 1 ml fractions with a buffer containing 50 mM NaH2PO4 (pH 8.0), 500 mM NaCl and 250 mM imidazole. NS5BΔ21-enriched fractions were selected using a Bradford colorimetric assay, and HCV-NS5BΔ21 purity was determined by Coomassie-stained sodium dodecyl sulfate-polyacrylamide electrophoresis gel (SDS-PAGE) analysis. Purified NS5BΔ21 fractions were pooled and dialyzed against a buffer containing 5 mM Tris (pH 7.5), 0.2 M sodium acetate, 1 mM DTT, 1 mM ethylenediaminetetraacetic acid (EDTA) and 10% glycerol.
as §1

[7] = molecular target: T4, RNA binding to HCV-NS5BΔ21 (Hepatitis C virus genotype 1b, UniProt O92972); assay: HCV-NS5BΔ21-RNA ELISA assay; settings: dose-dependent
T4 construct: made in house; host or cells: Escherichia coli C41(DE3)
Procedure: Ninety-six-well plates were coated with streptavidin (100 μg/ml in 0.1 M NaHCO3, 50 μl/well) overnight at 4°C. The plates were washed six times with 200 μl phosphate-buffered saline (PBS)-T and blocked with 50 μl of 3% BSA and 0.1 μg/ml of streptavidin in PBS overnight at 4°C, then four times with 0.1% PBS-Tween. A mix of 5 pmol of biotinylated RNA and 0.5 μg of HCV-NS5BΔ21 previously incubated for 30 min at 37°C in a binding buffer containing 50 mM Tris (pH 7.5), 150 mM NaCl, 0.02 mg/ml yeast tRNA and 0.2 mg/ml BSA was added (50 μl/well) and incubated 1 h at room temperature. The plates were washed six times with 200 μl/well PBS-T, and the 6His mAB/HRP conjugate (Clontech, Mountain View, CA, USA) in PBS 1:1000 (50 μl/well) was added and incubated for 1 h at room temperature. The plates were washed six times with 200 μl/well PBS-T. A mix of enhanced chemiluminescence reagent was added (50 μl/well) and luminescence was measured.

[8] = molecular target: T5, HCV-NS5BΔ21 RdRp genotype 2a (strain JFH1) (Hepatitis C virus genotype 2a, UniProt Q99IB8); assay: cell-free HCV-NS5BΔ21 polymerase assay, genotype 2a (JFH1); type: biochemical
T5 construct: His6 (N); made in house; host or cells: Escherichia coli C41(DE3)
Procedure: as §2

[9] = system: HCV genotype 1b subgenomic replicon Con1; assay: microbe, parasite or virus in culture; settings: Hepatitis C virus, Huh7.5, 72 h, read-out: EC50 replicon replication
Procedure: Each data point represents the average of at least three replicates in cell culture. HCV RNA level reductions after treatment were assessed by comparing the level of HCV RNA in compound-treated cells to that of control cells treated with 1% DMSO.

[10] = molecular target: T6, HCV-NS5BΔ21 RdRp genotype 1a (strain H77) (Hepatitis C virus genotype 1a, UniProt P27958); assay: cell-free HCV-NS5BΔ21 polymerase assay, genotype 1a (H77); type: biochemical
T6 construct: His6 (N); made in house; host or cells: Escherichia coli C41(DE3)
Procedure: as §2

[11] = system: HCV NS5B protein expression; assay: Western blot analysis of NS5B in Con1 replicon cells; type: cell-based, hepatitis C virus; settings: Huh7.5 cells, 72 h, increasing concentrations
Procedure: HCV Con1 replicon-harboring cells were seeded at a density of 90 000 cells per well in 6-well plates. […] NS5B and actin were detected using specific monoclonal antibodies (Enzo Life Sciences, Firmingdale, NY, USA and Sigma Aldrich, Saint Louis, MO, USA, respectively).

[12] = molecular target: T4, RNA binding to HCV-NS5BΔ21; assay: RNA binding assay (EMSA); settings: fixed concentration of HCV-NS5BΔ21, increasing compound
Procedure: RNA binding was studied by means of the electrophoretic mobility shift assay (EMSA) with minor modifications. Briefly, 0.5 μg/ml of HCV-NS5BΔ21 was incubated with 1 μg of a 500 bp RNA at 37°C for 30 min in 20 μl of a binding buffer containing 10 mM Tris pH 7.5, 1 mM EDTA, 100 mM KCl, 0.1 mM DTT, 5% vol/vol glycerol, 10 μg/ml bovine serum albumin (BSA), in the presence of increasing concentrations of the tested compound. Samples were then loaded onto a non-denaturing agarose gel. The gel was incubated 20 min in SYBR green EMSA Nucleic Acid Gel Stain (Invitrogen, Carlsbad, CA, USA). After washing, the gel was visualized under ultraviolet transillumination.

T3 sequence (O92972 2420-2989, stated change not applied): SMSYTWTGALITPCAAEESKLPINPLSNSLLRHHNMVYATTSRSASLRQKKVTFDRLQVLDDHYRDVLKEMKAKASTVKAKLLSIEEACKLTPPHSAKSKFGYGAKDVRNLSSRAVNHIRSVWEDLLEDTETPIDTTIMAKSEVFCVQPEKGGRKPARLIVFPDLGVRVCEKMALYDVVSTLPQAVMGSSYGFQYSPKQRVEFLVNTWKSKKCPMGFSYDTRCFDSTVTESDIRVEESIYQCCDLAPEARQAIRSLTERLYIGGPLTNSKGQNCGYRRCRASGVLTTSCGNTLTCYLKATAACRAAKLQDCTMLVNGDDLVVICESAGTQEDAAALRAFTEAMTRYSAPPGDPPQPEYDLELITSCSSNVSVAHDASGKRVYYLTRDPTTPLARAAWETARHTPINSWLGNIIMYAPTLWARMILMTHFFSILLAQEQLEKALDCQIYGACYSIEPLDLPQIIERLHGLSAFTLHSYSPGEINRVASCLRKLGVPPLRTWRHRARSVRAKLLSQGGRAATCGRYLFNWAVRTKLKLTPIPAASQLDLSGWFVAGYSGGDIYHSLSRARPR
T4 sequence (O92972 2420-2989, stated change not applied): as above
T1 sequence (O92972 2420-2989 V2535I): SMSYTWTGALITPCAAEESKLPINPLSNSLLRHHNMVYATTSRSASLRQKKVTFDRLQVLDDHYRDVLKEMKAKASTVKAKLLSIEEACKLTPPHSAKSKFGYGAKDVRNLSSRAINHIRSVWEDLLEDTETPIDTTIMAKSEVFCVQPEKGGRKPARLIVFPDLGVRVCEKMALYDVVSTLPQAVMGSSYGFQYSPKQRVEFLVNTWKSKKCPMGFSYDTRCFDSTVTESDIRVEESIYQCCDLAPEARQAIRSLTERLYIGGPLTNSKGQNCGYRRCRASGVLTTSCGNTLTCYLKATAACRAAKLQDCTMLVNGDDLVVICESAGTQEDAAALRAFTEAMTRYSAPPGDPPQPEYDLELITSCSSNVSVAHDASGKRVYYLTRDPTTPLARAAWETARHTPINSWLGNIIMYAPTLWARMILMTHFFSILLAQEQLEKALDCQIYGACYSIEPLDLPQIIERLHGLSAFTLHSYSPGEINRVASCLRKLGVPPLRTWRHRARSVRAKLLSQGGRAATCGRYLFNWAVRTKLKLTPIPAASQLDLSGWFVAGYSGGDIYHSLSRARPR
T2 sequence (O92972 2420-2989 F2581Y): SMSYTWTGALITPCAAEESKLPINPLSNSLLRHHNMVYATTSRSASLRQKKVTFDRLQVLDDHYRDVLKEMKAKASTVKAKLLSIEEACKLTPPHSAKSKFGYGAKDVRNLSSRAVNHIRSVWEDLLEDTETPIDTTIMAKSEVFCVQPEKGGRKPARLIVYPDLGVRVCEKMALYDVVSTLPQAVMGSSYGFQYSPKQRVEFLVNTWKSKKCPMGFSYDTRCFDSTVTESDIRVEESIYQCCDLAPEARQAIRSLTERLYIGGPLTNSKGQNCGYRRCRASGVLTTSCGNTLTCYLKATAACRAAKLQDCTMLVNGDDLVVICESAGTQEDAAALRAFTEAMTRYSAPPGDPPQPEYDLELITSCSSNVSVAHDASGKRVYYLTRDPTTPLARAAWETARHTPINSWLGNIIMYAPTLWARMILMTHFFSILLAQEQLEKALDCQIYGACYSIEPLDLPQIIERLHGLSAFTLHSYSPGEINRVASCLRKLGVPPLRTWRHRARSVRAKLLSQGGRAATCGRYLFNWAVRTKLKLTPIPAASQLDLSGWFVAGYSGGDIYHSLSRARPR
T6 sequence (P27958 2421-2990, stated change not applied): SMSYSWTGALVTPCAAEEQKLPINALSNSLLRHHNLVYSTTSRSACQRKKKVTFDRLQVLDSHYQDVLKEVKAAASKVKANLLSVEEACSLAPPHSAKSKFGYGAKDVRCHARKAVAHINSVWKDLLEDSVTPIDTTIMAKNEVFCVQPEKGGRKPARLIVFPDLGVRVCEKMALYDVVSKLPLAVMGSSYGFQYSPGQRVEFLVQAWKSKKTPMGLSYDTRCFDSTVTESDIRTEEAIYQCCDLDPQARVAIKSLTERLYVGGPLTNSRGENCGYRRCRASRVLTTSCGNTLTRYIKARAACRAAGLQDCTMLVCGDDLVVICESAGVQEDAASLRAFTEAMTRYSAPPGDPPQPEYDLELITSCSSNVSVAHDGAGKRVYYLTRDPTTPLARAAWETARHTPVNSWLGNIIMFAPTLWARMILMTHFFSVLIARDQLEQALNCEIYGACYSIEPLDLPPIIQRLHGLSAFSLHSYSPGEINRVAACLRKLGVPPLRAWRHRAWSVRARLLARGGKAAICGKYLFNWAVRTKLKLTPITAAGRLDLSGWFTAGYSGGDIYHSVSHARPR

O=c1c(O)c(-c2ccc(O)c(O)c2)oc2cc(O)c(O)c(O)c12 [Quercetagetin]
RNA duplex formation (RNA duplex): not inhibited
susceptibility of V116I variant (HCV-NS5BΔ21 RdRp mutants [1]): did not reduce
change of susceptibility (HCV-NS5BΔ21 RdRp mutants [2]): No change
reduction of catalytic activity by the compound (HCV-NS5BΔ21 RdRp mutants [3]): 3 fold
IC50 [4]: 2.8 to 6.1 µM
EC50 [5]: 40.2 ± 17.7 µM
inhibition at 20 µM ([6]; 20 μM compound): 85.6%
Slope of fluorescence increase ([6]; 20 μM compound, no treatment control slope 62.0): 8.9
IC50 ([6]; genotype 1b (strain J4), read-out: IC50 HCV-NS5BΔ21 polymerase activity): 4.3 ± 0.7 µM
mode of inhibition (double-reciprocal plots) ([6]; increasing ATP or GTP with poly-U or poly-C): non-competitive
inhibition of RNA binding, EC50 [7]: of the same order as that in the enzyme assay
IC50 [8]: 6.1 ± 1.6 µM
EC50 [9]: 5.4 ± 3.3 µM
IC50 [10]: 2.8 ± 0.4 µM
NS5B protein expression [11]: inhibited NS5B protein expression in a dose-dependent manner
amount of free RNA [12]: increased in a quercetagetin concentration-dependent manner
